Results reported in the supplement of paper PMC12317010.
Counter-ions that a name gives are not always drawn.

Experiment: collision cross section in nitrogen (drift tube, single-field); higher = larger gas-phase ion size
[1] = ion type: [M-H], ion source: ESI, ion mode: Negative
[2] = ion type: [M+H], ion source: APCI, ion mode: Positive
[3] = ion type: [M+H], ion source: ESI, ion mode: Positive
[4] = ion type: [M+Na], ion source: ESI, ion mode: Positive
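Also: chemical standards at 10 µM analysed by drift tube IMS-QTOF MS in about 3.95 torr nitrogen, mean of duplicate injections differing ≤1%, mass error below 10 ppm.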

| Compound | collision cross section in nitrogen [1] [Å²] | collision cross section in nitrogen [2] [Å²] | collision cross section in nitrogen [3] [Å²] | collision cross section in nitrogen [4] [Å²] |
| --- | --- | --- | --- | --- |
| CCC(CC)Nc1c([N+](=O)[O-])cc(C)c(C)c1[N+](=O)[O-] [Pendimethalin] | 163.7 | – | – | – |
| CC1(C)S[C@@H]2[C@H](NC(=O)COc3ccccc3)C(=O)N2[C@H]1C(=O)O [Penicillin VK] | – | 182 | 182.1 | 184.1 |
| COc1cnc(OC)n2nc(NS(=O)(=O)c3c(OCC(F)F)cccc3C(F)(F)F)nc12 [Penoxsulam] | 193.3 | 196 | 195.6 | 198.5 |
| Nc1c(Cl)c(Cl)c(Cl)c(Cl)c1Cl [Pentachloroaniline] | 138.4 | – | – | – |
| C=CC(=O)OCC(COC(=O)C=C)(COC(=O)C=C)COC(=O)C=C [Pentaerythritol tetraacrylate] | – | – | 172.6 | 178.8 |
| C=CC(=O)OCC(CO)(COC(=O)C=C)COC(=O)C=C [Pentaerythritol triacrylate] | – | – | – | 165.1 |
| OCCOCCOCCOCCOCCO [Pentaethylene glycol] | – | – | – | 150.1 |
| N=C(N)c1ccc(OCCCCCOc2ccc(C(=N)N)cc2)cc1 [Pentamidine isethionate] | – | – | 177.4 | 183.2 |
| N=C(N)c1ccc(OCCCCCOc2ccc(C(=N)N)cc2)cc1 [Pentamidine] | – | 176.9 | – | – |
| O=S(=O)(O)C(F)(F)C(F)(F)C(F)(F)C(F)(F)F [Perfluorobutanesulfonic acid] | 133.8 | – | – | – |
| O=C(O)C(F)(F)C(F)(F)C(F)(F)C(F)(F)C(F)(F)C(F)(F)C(F)(F)C(F)(F)C(F)(F)F [Perfluorodecanoic acid] | 175.1 | – | – | – |
| O=C(O)C(F)(F)C(F)(F)C(F)(F)C(F)(F)C(F)(F)C(F)(F)C(F)(F)C(F)(F)F [Perfluorononanoic acid] | 166.1 | – | – | – |
| NS(=O)(=O)C(F)(F)C(F)(F)C(F)(F)C(F)(F)C(F)(F)C(F)(F)C(F)(F)C(F)(F)F [Perfluorooctanesulfonamide] | 170.4 | – | – | – |
| O=S(=O)(O)C(F)(F)C(F)(F)C(F)(F)C(F)(F)C(F)(F)C(F)(F)C(F)(F)C(F)(F)F [Perfluorooctanesulfonic acid] | 168.7 | – | – | – |
| O=C(O)C(F)(F)C(F)(F)C(F)(F)C(F)(F)C(F)(F)C(F)(F)C(F)(F)F [Perfluorooctanoic acid] | 157 | – | – | – |
| O=C(O)C(F)(F)C(F)(F)C(F)(F)C(F)(F)C(F)(F)C(F)(F)C(F)(F)C(F)(F)C(F)(F)C(F)(F)F [Perfluoroundecanoic acid] | 183.9 | – | – | – |
| CCC[C@H](N[C@@H](C)C(=O)N1[C@H](C(=O)O)C[C@@H]2CCCC[C@@H]21)C(=O)OCC [Perindopril erbumine] | 190.7 | – | 189.7 | 196.4 |
| CCOc1ccc(NC(C)=O)cc1 [Phenacetin] | – | 141.4 | 141.5 | – |
| Nc1ccc(N=Nc2ccccc2)c(N)n1 [Phenazopyridine hydrochloride] | 148.1 | 150 | 150.3 | – |
| CCC1(c2ccccc2)C(=O)N=C(O)NC1=O (centres undefined) [Phenobarbital sodium] | 150.4 | – | – | – |
| O=S1(=O)OC(c2ccc(O)cc2)(c2ccc(O)cc2)c2ccccc21 [Phenol Red sodium salt] | 181.8 | – | 179.8 | – |
| O=S1(=O)OC(c2ccc(O)cc2)(c2ccc(O)cc2)c2ccccc21 [Phenol red] | 182 | – | – | – |
| O=C1OC(c2ccc(O)cc2)(c2ccc(O)cc2)c2ccccc21 [Phenolphthalein] | 176.2 | 173.8 | 173.9 | 191.8 |
